pIC50: −log10 of the molar value.
Columns and labels:
Type in all cases: functional, cell-based
[1] = system: HepG2; experiment: Cytotoxicity against human HepG2 cells assessed as reduction in cell viability after 48 hrs by MTT assay; conditions: HepG2, 48 h
[2] = system: N2a; experiment: Cytotoxicity against mouse Neuro2a cells assessed as reduction in cell viability after 48 hrs by MTT assay
[3] = system: HCT-116; experiment: Cytotoxicity against human HCT116 cells assessed as reduction in cell viability after 48 hrs by MTT assay; conditions: HCT-116, 48 h

SMILES	pIC50 [1]	pIC50 [2]	pIC50 [3]
C=C1CC/C=C/[C@@H](O)[C@H](O)C[C@H](O)CC2=C[C@@H]3/C(C)=C/C[C@@H](C)C[C@@H](/C=C(\C)[C@@H](O)[C@@H]4C[C@@H](O)[C@H](O)[C@@H](CC[C@H](O)/C=C/C(C)=C/CCC5=NCC[C@H](C2)[C@@]53C)O4)OC(=O)C[C@@H]2O[C@H]([C@@H](O)[C@H]2O)[C@@H](O)C1	< 4.30	5.28	5.66
C=C1CCC[C@H]2O[C@H](CC3=C[C@@H]4/C(C)=C/C[C@@H](C)C[C@@H](/C=C(\C)[C@@H](O)[C@@H]5C[C@@H](O)[C@H](O)[C@@H](CC[C@H](O)/C=C/C(C)=C/CCC6=NCC[C@H](C3)[C@@]64C)O5)OC(=O)C[C@@H]3O[C@H]([C@@H](O)[C@H]3O)[C@@H](O)C1)C[C@@H](O)[C@@H]2O	< 5.00	< 5.00	< 5.00
